According to publication PMC9080521, “Molecular basis of rutin inhibition of protein disulfide isomerase (PDI) by combined in silico and experimental methods” (RSC Advances, 2018):

Legend:
[1] = biological target: T1, wt MBP-PDI-b′xa′ (Homo sapiens, UniProt P07237); assay: Insulin reduction assay; type: biochemical; conditions: compound 100 μM, 1.5 μM protein, last read (100 min); WT alone 0.829
T1 construct: MBP-PDI-b′xa′(235–479); His-tag; made in house; host or cells: E. coli BL21 (DE3)
Experimental: (§1) The insulin reduction assay was performed to assess the enzymatic activity of PDI and its MBP-fused recombinant proteins. PDI can reduce insulin in the presence of dithiothreitol (DTT) along with increase in turbidity of the reaction mixture. We thus monitored spectrophotometrically the aggregation of reduced insulin through the increase of turbidity. The reductase activity was measured in 100 μL in presence of 600 μM insulin, 1.5 μM PDI and recombinant PDI proteins, 1 mM DTT, and with protein buffer (pH 7.4), at room temperature over 100 min by absorption at 650 nm. For inhibition assay, 100 μM of rutin, kaempferitrin, tiliroside and 2′-O-galloylhyperin or control buffer was added to the reaction system.
We further used the insulin reduction assay to measure the reductase activities of these site-directed MBP-PDI-b′xa′ mutants. This assay has typically good reproducibility as shown by a control experiment with three repetitions (Fig. S7 ^†). We found the PDI mutants maintained reductase activities in the presence of dithiothreitol (DTT). The H354A mutation lowered the reductase activity of wt MBP-PDI-b′xa′ (Fig. 3G) while other mutants had similar reductase activities with that of wt MBP-PDI-b′xa′ (Fig. 3C, F and H–J). Addition of rutin inhibited the reductase activities of both wt MBP-PDI-b′xa′ and the mutants (Fig. 3C and F–J). […] We quantified the inhibition of rutin on these MBP-PDI-b′xa′ mutants by measuring the increase of turbidity (OD650 at 100 min) upon addition of rutin (Fig. 3K).

[2] = biological target: full-length human PDI (Homo sapiens, UniProt P07237); assay: Insulin reduction assay; type: biochemical; conditions: compound 100 μM; for turbidity (OD650), raw kinetic read at 1:40:32: 1.5 μM protein, last read (100 min), PDI alone 1.125
Experimental: as §1

[3] = tested on: PDI; parameters: method as in PMID 21121641; conditions: read-out: inhibits PDI at; cited from earlier work
[4] = tested on: plasma thrombin generation activity; parameters: method as in PMID 28097231; conditions: human, oral administration (1 gram); cited from earlier work

Chain of full-length human PDI (P07237 18-508): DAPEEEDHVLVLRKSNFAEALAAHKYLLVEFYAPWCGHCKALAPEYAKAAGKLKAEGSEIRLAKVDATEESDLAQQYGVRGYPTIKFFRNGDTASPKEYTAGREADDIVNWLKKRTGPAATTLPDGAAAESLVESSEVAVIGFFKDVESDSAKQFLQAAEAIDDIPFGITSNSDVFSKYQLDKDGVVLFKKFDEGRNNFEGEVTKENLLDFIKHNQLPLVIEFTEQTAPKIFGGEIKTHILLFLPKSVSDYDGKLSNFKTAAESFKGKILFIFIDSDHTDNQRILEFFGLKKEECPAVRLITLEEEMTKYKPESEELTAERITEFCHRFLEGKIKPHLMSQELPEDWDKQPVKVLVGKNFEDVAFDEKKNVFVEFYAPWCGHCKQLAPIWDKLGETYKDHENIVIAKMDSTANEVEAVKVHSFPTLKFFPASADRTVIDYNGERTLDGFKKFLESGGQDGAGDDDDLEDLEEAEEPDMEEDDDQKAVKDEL
T1 sequence (P07237 235-479): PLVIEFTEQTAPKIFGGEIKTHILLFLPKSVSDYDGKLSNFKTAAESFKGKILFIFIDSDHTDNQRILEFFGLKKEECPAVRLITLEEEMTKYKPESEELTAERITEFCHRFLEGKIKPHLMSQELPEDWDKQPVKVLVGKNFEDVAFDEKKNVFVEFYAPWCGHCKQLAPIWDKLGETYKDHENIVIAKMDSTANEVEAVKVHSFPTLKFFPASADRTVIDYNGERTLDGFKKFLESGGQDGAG

Row | turbidity (OD650), raw kinetic read at 1:40:32 [1] | turbidity (OD650), raw kinetic read at 1:40:32 [2] | inhibitory activity on reductase activity ([2]; full-length human PDI) | SMILES | IC50 [3] | reduction of plasma thrombin generation activity [4]
1 | 0.56 | 0.998 | smaller than that of rutin | C[C@@H]1O[C@@H](Oc2cc(O)c3c(=O)c(O[C@@H]4O[C@@H](C)[C@H](O)[C@@H](O)[C@H]4O)c(-c4ccc(O)cc4)oc3c2)[C@H](O)[C@H](O)[C@H]1O [kaempferitrin] | – | –
2 | – | – | – | C/C1=C/[C@H](O)C(C)(C)CCC/C(C)=C/C[C@H]1OC(=O)c1ccc(O)cc1 [juniferdin] | 156 nM | –
3 | 0.5 | 0.925 | – | O=C(/C=C/c1ccc(O)cc1)OC[C@H]1O[C@@H](Oc2c(-c3ccc(O)cc3)oc3cc(O)cc(O)c3c2=O)[C@H](O)[C@@H](O)[C@@H]1O [tiliroside] | – | –
4 | – | – | – | O=c1c(O[C@@H]2O[C@H](CO)[C@@H](O)[C@H](O)[C@H]2O)c(-c2ccc(O)c(O)c2)oc2cc(O)cc(O)c12 [isoquercetin] | – | about half
